Test [1] deals with arteria basilaris vessel rings. The experiment in a line: Inhibition of K^+ depolarization contraction of isolated vessel rings (a. basilaris) in the organ bath. To be noted: rabbit a. basilaris rings, mean diameter 0.5-1.0 mm, potassium depolarization in Tyrode's solution, read-out: Concentration (IC50) effecting a semimaximal inhibition of the K^+ -depolarization contraction of vessel rings, a. basilaris. Format: cell-based. The source says:
(§1) Of rabbits (vessel ring segments of arteria basilaris and a. coronaria are mounted in an organ bath in a way to allow the measurement of isometric contractions. Contractile activity is elicited by a potassium depolarization in Tyrode's solution. This experimental set-up is a well-known standard model for the identification of substances blocking the calcium channels opened during the potassium depolarization (Fleckenstein, Calcium Antagonism in Heart and Smooth Muscle, J. Wiley & Sons, 1983).
(§2) Concentrations (IC50, mol/l) of compounds effecting a semimaxi-
(§3) mal inhibition of the K^+ -depolarization contraction of vessel
(§4) in the organ bath. A. bas. = arteria basilaris, a cor. = arteria
(§5) coronaria of the rabbit; mean diameter 0.5-1.0 mm.

For test [2], the system named is arteria coronaria vessel rings. The experiment in a line: Inhibition of K^+ depolarization contraction of isolated vessel rings (a. coronaria) in the organ bath. The test is classed as cell-based. To be noted: rabbit a. coronaria rings, mean diameter 0.5-1.0 mm, potassium depolarization in Tyrode's solution, read-out: Concentration (IC50) effecting a semimaximal inhibition of the K^+ -depolarization contraction of vessel rings, a. coronaria.
Text: as §1, §2, §3, §4, §5

For `COc1ncnc2c1C(c1cccc([N+](=O)[O-])c1)C(C(=O)OC(C)C)=C(C)N2` (racemic) [Example 2, (±)-5,8-Dihydro-4-methoxy-7-methyl-5-(3-nitrophenyl)pyrido[2,3-d]pyrimidine-6-carboxylic acid isopropyl ester], the IC50 amounted to 2.5 nM in test [1] and 140 nM in test [2].

Regarding `COC(=O)C1=C(C)Nc2ncnc(OC(C)C)c2C1c1ccccc1C(F)(F)F` (racemic) [Example 1c, (±)-5,8-Dihydro-4-isopropoxy-7-methyl-5-(2-trifluromethylphenyl)pyrido[2,3-d]pyrimidine-6-carboxylic acid methyl ester], the values for the IC50 in test [1] and in test [2] were 40 nM and 45 nM, respectively.

For the compound `COCCOC(=O)C1=C(C)Nc2ncnc(OC(C)C)c2C1c1cccc([N+](=O)[O-])c1` (racemic) [Example 1b, (±)-5,8-Dihydro-4-isopropoxy-7-methyl-5-(3-nitrophenyl)pyrido[2,3-d]pyrimidine-6-carboxylic acid(2-methoxy)ethyl ester], the IC50 in test [1] is 39 nM; in test [2] it was 34 nM.

`CCOC(=O)C1=C(N)Nc2ncnc(OC(C)C)c2C1c1ccccc1OC` (racemic) [Example 1e, (±)-7-Amino-5,8-dihydro-4-isopropoxy-5-(2-methoxyphenyl)pyrido[2,3-d]pyrimidine-6-carboxylic acid ethyl ester]: the IC50 in test [1] stood at 2800 nM; in test [2] it was 73 nM.

Consider `CC1=C(C(=O)OC(C)C)C(c2cccc([N+](=O)[O-])c2)c2c(ncnc2OC(C)C)N1` (racemic) [Example 1d, (±)-5,8)Dihydro-4-isopropoxy-7-methyl-5-(3-nitrophenyl)pyrido[2,3-d]pyrimidine-6-carboxylic acid isopropyl ester], for which the IC50 in test [1] stood at 33 nM; in test [2], 160 nM.

As for `CCOC(=O)C1=C(C)Nc2ncnc(OC(C)C)c2C1c1ccccc1C(F)(F)F` (racemic) [Example 1f, (±)-5,8-Dihydro-4-isopropoxy-7-methyl-5-(2-trifluoromethylphenyl)pyrido[2,3-d]pyrimidine-6-carboxylic acid ethyl ester], the results for the IC50 in test [1] and in test [2] were 38 nM and 34 nM, respectively.

For the compound `COC(=O)C1=C(C)Nc2ncnc(OC(C)C)c2C1c1cccc([N+](=O)[O-])c1` (racemic) [Example 1g, (±)-5,8-Dihydro-4-isopropoxy-7-methyl-5-(3-nitrophenyl)pyrido[2,3-d]pyrimidine-6-carboxylic acid methyl ester], the IC50 in test [1] was found to be 28 nM; in test [2] it was 230 nM.

Source of the values: US4681882A, “4-alkoxy-pyrido[2,3-d]pyrimidine derivatives” (Godecke Aktiengesellschaft, priority 1984, dated 1987).
